Measured values taken from patent publication US6238693A, “Transdermal administration of fenoldopam” (priority 1999, dated 2001).
Counter-ions that a name gives are not always drawn. Values belong to the compound of their own block, whether it stands above or below them.

Tests used:
[1] = cited from earlier work
[2] = cited from earlier work; remark: listed apart in the source
[3] = tested on: dopamine type-1 receptors; conditions: cited from earlier work
[4] = exposure to the atmosphere during storage; cited from earlier work
guinea pigs [5] = conditions: guinea pig, in vivo
Procedure: (§1) Dermal sensitization studies in guinea pigs were done to assess the contact sensitization of fenoldopam mesylate and of R-fenoldopam mesylate, the active enantiomer, when administered topically and intradermally. Each of the drugs, the fenoldopam mesylate and the R-fenoldopam mesylate, were administered to the animals from a 50:50 mixture of propylene glycol/water, at drug concentrations of 40 mg/mL, 30 mg/mL, 20 mg/mL, and 10 mg/mL.
As described in Example 2, sixteen animals were divided into 4 groups of 4 animals each. The first group of 4 animals (Group 1) were treated with a topical application of fenoldopam mesylate at the four concentrations. Each animal, after having the hair removed from its back and sides, received each of the concentrations applied at four separate sites. The animals in Group 2 were similarly treated, except with R-fenoldopam. After 24 hours of exposure to the test material, the application site was scored on a four-point scale for dermal reactions (0=no reaction, 1=moderate mild redness, 2=moderate and diffuse redness, 3=intense redness and swelling). […]
For the topical application, the test materials were placed on 2 cm×2 cm pieced of filter paper to saturation and allowed to remain in place on the animal for 24 hours. […] The sites were scored on the following four-point scale for dermal reactions at approximately 24 and 48 hours after patch removal: […]

guinea pigs [6] = assay: Dermal sensitization challenge study (definitive study); assay type: in vivo, guinea pig; conditions: 40 mg/mL challenge
Procedure: Based on the results from this initial phase of dermal sensitization studies, a definitive challenge dermal sensitivity study was conducted, as described in Example 3. Briefly, thirty animals were divided into three test groups of 10 animals each. The animals in Group 5 were treated with fenoldopam mesylate, the animals in Group 6 with R-fenoldopam mesylate and the animals in Group 7 were treated with vehicles alone as a control.
All animals were initially treated with intradermal injections of the test compound, e.g., fenoldopam mesylate (Group 5) or R-fenoldopam (Group 6), in a 1:1 mixture of propylene glycol:water or in a mixture of Freund's Complete Adjuvent (FCA) in propylene glycol:water. The drug concentration in these vehicle mixtures was 40 mg/mL (see Table 4 in Example 3). The animals were also treated with FCA in water alone. The animals in Group 7 received the same three formulations, except for the absence of fenoldopam.
One week after the intradermal injections, each of the test formulations was applied topically to the injection site. The topical application, in the form of a saturated patch of filter paper, was left in place for 48 hours.
Two weeks after the topical application, the animals in groups 5 and 6 received a challenge dose of 40 mg/mL of the test compound in PG:water, applied topically to a naive site. On the opposing side of the animal, the vehicle alone (PG:water) was applied. The animals in Group 7 received the vehicle alone on both sides. 24 hours after the topical challenge dose, the site was scored for dermal sensitization using the four-point scale given above.
Thirty guinea pigs were obtained and cared for as set forth in Example 2.
On Day 1 of the study, an area approximately 4 cm×6 cm was clipped with an electric clipper along the midline over the shoulder region of each animal in the test and control groups. Two rows of three 0.1 mL intradermal injections were made within the boundaries of a 2 cm×4 cm area, one row on each side of the midline. The injections in each row were as follows: at the anterior site, the animal received 0.1 mL of the prepared Freund's Complete Adjuvent (FCA) solution (Groups 5, 6 and 7); at the medial site, the animals received 0.1 mL of the respective prepared test material (Groups 5 and 6) or vehicle control (Group 7); and at the posterior site, the animals received 0.1 mL of the respective test material (drug in PG:water) further mixed with FCA solution (Groups 5 and 6) or a 1:1 dilution of the PG:water vehicle control in FCA.
On Day 7, the area of intradermal injection on each animal in Groups 5, 6 and 7 was clipped free of hair with an electric clipper. The clipped area was treated with 10% w/w sodium lauryl sulfate in petrolatum. […]

guinea pigs [7] = conditions: guinea pig, in vivo; remark: listed apart in the source
Procedure: as §1
Dermal sensitization was also evaluated following intradermal injection of fenoldopam mesylate and R-fenoldopam at the same concentrations used in the topical screening. As described in Example 2, four animals (Group 3) were treated with […] injections of fenoldopam mesylate at four injection sites, one for each of the four concentrations. Four animals in Group 4 were similarly injected with R-fenoldopam at the four concentrations. 24 hours after injection, the injection sites were scored for dermal reaction on the 4-point scale.
Guinea pigs (strain: CRl (HA)BR) were obtained from Charles River Laboratories. The animals were young adults, weighing between 350-550 g at the start of the study. Each animals was housed individually and fed ad libitum a certified
A stock solution of 50% propylene glycol/50% sterile water mixture was prepared as the control material and for preparation of the test materials.
On each day of testing, a 40 mg/mL fenoldopam mesylate or R-fenoldopam mesylate in 50% propylene glycol/50% sterile water solution was prepared using the stock solution. The 40 mg/mL drug solution was diluted with the stock solution to prepare solutions of 30 mg/mL, 20 mg/mL and 10 mg/mL of both the racemate and the enantiomer. All test materials were used within 8 hours of preparation and were stored at room temperature until administered.
Sixteen guinea pigs were divided into the following groups:
For the intradermal injection, the four animals in Group 3 were treated with intradermal injection of fenoldopam mesylate and the four animals in Group 4 were treated with intradermal injections of R-fenoldopam mesylate. The test materials were administered at concentrations of 40 mg/mL, 30 mg/mL, 20 mg/mL and 10 mg/mL by injecting each at a volume of 0.1 mL into a separate site on the shaved back of the test animal. The areas of intradermal injections were evaluated for dermal irritation on the four-point scale given above at 24 and 48 hours after injection. The test sites were clipped with an electric clipper before the first reading.

[8] = intravenous infusion, therapeutic dosages

SMILES: Oc1ccc(C2CNCCc3c2cc(O)c(O)c3Cl)cc1 (stereo not drawn) [fenoldopam, 6-chloro-2,3,4,5-tetrahydro-l-(4-hydroxyphenyl)-1H-3-benzazepine-7,8-diol]
- time to achieve dose-dependent steady-state plasma concentration ([1]; intravenous, about 0.01-1.6 μg/kg/min for up to 48 hours): about 20 minutes
- first-pass metabolism ([1]; via sulfation and glucuronidation): high first-pass metabolism
- blood pressure ([2]; in vivo): decrease in blood pressure
- duration of antihypertensive and renal effects ([2]; in vivo): short lasting
- renal vasodilation, diuresis and natriuresis ([2]; in vivo): renal vasodilation, diuresis and natriuresis
- creatinine clearance, urinary flow and excretion of sodium and potassium [2, 8]: increasing creatinine clearance, urinary flow and excretion of sodium and potassium
- glomerular filtration rate [2, 8]: maintaining glomerular filtration rate
- renal blood flow [2, 8]: increases renal blood flow
- renal vascular resistance [2, 8]: decreases renal vascular resistance
- dopamine agonism / peripheral vasodilation ([3]; via stimulation of dopamine type-1 receptors): dopamine agonist that causes peripheral vasodilation

SMILES: Oc1ccc(C2CNCCc3c2cc(O)c(O)c3Cl)cc1 (racemic) [racemic fenoldopam]
- average clearance (CL) ([1]; human, in vivo, iv): 2.6 L/min
- half-life (t1/2) ([1]; human, in vivo, iv): 4.6 min

SMILES: Oc1ccc([C@@H]2CNCCc3c2cc(O)c(O)c3Cl)cc1 [S-fenoldopam]
- biological activity of enantiomer [3]: relatively inactive

SMILES: Oc1ccc(C2CNCCc3c2cc(O)c(O)c3Cl)cc1 (stereo not shown) [fenoldopam free base]
- oxidation [4]: readily oxidized

- Dermal Reactions, topical application (guinea pigs [5]): 0
- Dermal Reactions, intradermal injection (guinea pigs [7]): 2
- appearance of injection site (footnote) (guinea pigs [7]): Whitish in color
SMILES: Oc1ccc([C@H]2CNCCc3c2cc(O)c(O)c3Cl)cc1 [R-fenoldopam mesylate]
- animals scored as having "scattered mild redness" (guinea pigs [6]): 5 of the 10 animals
- dermal sensitization (summary) (guinea pigs [6]): moderate dermal sensitization

SMILES: Oc1ccc([C@H]2CNCCc3c2cc(O)c(O)c3Cl)cc1 [R-fenoldopam]
- biological activity of enantiomer [3]: the activity of the drug is due to the R-enantiomer

- Dermal Reactions, topical application (guinea pigs [5]): 0
- Dermal Reactions, intradermal injection (guinea pigs [7]): 2
- appearance of injection site (footnote) (guinea pigs [7]): Whitish in color
SMILES: Oc1ccc(C2CNCCc3c2cc(O)c(O)c3Cl)cc1 (racemic) [fenoldopam mesylate]
- animals scored as having "scattered mild redness" (guinea pigs [6]): 6 of the 10 animals
- dermal sensitization (summary) (guinea pigs [6]): moderate dermal sensitization
